Our source for the IC50 values is patent publication US5486512A, “Quinazoline derivatives as acetylcholinesterase inhibitors” (priority 1994, dated 1996).

Read-outs that look alike come from different tables or passages of the source.

Common to all, as to type: biochemical
In test [1] the target is T1, Human Red Blood Cell AChE (Homo sapiens, UniProt P22303).
T1 construct: from tissue; host or cells: human red blood cells
Briefly: Inhibition of human red blood cell acetylcholinesterase in vitro (radiometric assay of Johnson and Russell, modified). An excerpt: (§1) The in vitro data was obtained according to the radiometric assay of C. D. Johnson and R. L. Russell described in Anal. Biochem., 64:229-238 (1975) and modified as described by M. R. Emmerling and H. M. Sobkowicz in Hearings Research, 32:137-146 (1988); the rat brain homogenate acetylcholinesterase inhibition data were obtained by the Ellman assay, described by G. L. Ellman, D. Courtney, V. Andres, and R. M. Feathersome, described in Biochem. Pharmacol. 7:88-95 (1961), and modified as described by M. J. Marks, D. M. Patinkin, L. D. Artman, J. B. Busch, and A. C. Collins in Pharmacol. Biochem. and Behav.15:271-279 (1981), which references are incorporated herein.

In another test the target is Electric Eel AChE (Electrophorus electricus, UniProt O42275). Briefly: Inhibition of electric eel acetylcholinesterase in vitro.
Chain of Electric Eel AChE (O42275 24-633): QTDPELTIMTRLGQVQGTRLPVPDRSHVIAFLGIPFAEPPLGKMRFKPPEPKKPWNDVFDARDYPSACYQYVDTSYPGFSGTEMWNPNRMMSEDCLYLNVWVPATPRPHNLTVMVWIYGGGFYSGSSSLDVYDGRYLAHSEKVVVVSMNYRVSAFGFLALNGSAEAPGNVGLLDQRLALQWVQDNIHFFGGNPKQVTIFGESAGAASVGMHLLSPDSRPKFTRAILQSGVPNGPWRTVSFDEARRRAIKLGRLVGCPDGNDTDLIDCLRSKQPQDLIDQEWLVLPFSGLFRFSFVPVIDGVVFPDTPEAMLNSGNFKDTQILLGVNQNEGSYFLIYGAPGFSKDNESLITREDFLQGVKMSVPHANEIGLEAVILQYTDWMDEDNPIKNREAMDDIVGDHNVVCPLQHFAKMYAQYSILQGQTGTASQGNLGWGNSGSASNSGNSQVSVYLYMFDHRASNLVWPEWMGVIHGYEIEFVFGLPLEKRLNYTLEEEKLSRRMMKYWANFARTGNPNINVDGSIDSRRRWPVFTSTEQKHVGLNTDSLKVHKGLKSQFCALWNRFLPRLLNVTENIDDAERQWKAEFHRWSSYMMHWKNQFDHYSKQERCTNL
Description: as §1

The target of test [2] is T2, Rat Brain Homogenate AChE (Rattus norvegicus, UniProt P37136).
T2 construct: rat brain homogenate acetylcholinesterase; from tissue; host or cells: rat brain homogenate
T2 sequence (P37136 32-614): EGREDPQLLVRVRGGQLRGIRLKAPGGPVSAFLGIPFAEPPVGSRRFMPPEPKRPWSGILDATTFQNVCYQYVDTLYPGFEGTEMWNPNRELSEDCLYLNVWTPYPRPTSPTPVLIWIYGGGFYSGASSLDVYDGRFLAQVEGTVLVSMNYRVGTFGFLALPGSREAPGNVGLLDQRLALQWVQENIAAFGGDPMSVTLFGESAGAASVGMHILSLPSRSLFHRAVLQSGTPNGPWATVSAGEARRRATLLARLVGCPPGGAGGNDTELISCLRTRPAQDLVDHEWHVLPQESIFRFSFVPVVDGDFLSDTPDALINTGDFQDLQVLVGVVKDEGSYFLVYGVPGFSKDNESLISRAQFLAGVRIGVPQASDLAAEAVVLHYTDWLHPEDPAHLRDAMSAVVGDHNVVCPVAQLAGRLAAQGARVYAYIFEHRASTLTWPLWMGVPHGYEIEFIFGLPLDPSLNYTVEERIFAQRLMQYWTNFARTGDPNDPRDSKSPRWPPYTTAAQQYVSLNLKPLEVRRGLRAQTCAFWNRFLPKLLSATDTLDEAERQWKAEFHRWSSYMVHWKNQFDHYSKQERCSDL
Nature of the test: Inhibition of rat brain homogenate acetylcholinesterase (Ellman assay, modified). As to conditions: Table I.
Description: as §1
(In Ellman's method for cholinesterases, released thiocholine reacts with DTNB.)

[3] abbreviates: Table I, read-out: Inhibition of Acetylcholinesterase, Human Red Blood Cell AChE.
The mark [4] stands for this setting: Table III, electric eel AChE, read-out: IC50 Eel AChE.
[5] abbreviates: Table II, human red blood cell AChE, read-out: IC50 Human AChE.
The mark [6] stands for this setting: Table I, read-out: Inhibition of Acetylcholinesterase, Electric Eel AChE.

T1 sequence (P22303 other isoform, or with tags, fused parts or gaps): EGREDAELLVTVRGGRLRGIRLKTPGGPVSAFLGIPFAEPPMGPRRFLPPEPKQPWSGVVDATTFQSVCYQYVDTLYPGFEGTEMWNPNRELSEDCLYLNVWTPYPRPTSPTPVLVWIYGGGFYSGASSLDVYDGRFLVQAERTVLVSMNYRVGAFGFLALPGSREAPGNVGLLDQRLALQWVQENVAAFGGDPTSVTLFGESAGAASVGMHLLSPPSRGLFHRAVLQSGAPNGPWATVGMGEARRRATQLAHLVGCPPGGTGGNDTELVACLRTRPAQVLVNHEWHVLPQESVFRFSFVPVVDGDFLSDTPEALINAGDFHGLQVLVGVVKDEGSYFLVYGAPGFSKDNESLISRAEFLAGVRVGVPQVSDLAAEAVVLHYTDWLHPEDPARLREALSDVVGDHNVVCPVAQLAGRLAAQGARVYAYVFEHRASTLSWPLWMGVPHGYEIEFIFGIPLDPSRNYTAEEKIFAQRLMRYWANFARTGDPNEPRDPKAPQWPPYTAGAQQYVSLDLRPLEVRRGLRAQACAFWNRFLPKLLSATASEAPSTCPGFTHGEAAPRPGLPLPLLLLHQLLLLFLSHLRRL

As to `Cc1ccc2c(c1)N=C1CCCCCN1C2` [3-CH3, H2, 3-methyl-6,7,8,9,10,12-hexahydroazepino[2,1-b]quinazoline], the IC50 in test [1] (setting [3]) was 610 nM. In the case of `c1ccc2c(c1)CN1CCCCCCC1=N2`, on Electric Eel AChE (setting [4]), the IC50 is 4300 nM. Regarding `COc1ccc2c(c1)N=C1CCCCCN1C2` [3-OCH3, H2], the IC50 in test [1] (setting [3]) stood at 2800 nM. In the case of `C1=CC2=Nc3ccccc3CN2C=C1`, the IC50 on Electric Eel AChE (setting [4]) stood at 1600 nM.

As for `c1ccc(C2CC3=Nc4ccccc4CN3C2)cc1` (stereo not drawn), at Electric Eel AChE (setting [4]), the IC50 was 3100 nM. Turning to `Clc1cc(Cl)c2c(c1)N=C1C3CCC(C3)N1C2` (stereo not drawn), the IC50 in test [1] (setting [5]) is 50 nM. On to `Cc1cc(Cl)c2c(c1)CN1CCCCCC1=N2` [2-CH3,4-Cl, H2, 4-chloro-2-methyl-6,7,8,9,10,12-hexahydroazepino[2,1-b]quinazoline], for which the IC50 in test [1] (setting [3]) was 631 nM. Regarding `Clc1cc(Cl)c2c(c1)N=C1CCC(c3ccccc3)(c3ccccc3)CN1C2`, the IC50 in test [1] (setting [5]) was 63 nM. Turning to `O=c1c2ccc(Cl)cc2nc2n1CCCCC2` [3-Cl, O, 3-chloro-7,8,9,10-tetrahydroazepino[2,1-b]quinazolin-12(6H)-one], on Electric Eel AChE (setting [6]), the IC50 came to 21000 nM. Consider `N=c1c2ccccc2nc2n1CCCC2`, for which the IC50 on Electric Eel AChE (setting [4]) came out at 1000 nM. For the compound `c1ccc2c(c1)CN1CCCC1=N2`, the IC50 on Electric Eel AChE (setting [4]) turned out to be 1600 nM. For the compound `Clc1ccc2c(c1)CN1CCCCCC1=N2` [2-Cl, H2, 2-chloro-6,7,8,9,10,12-hexahydroazepino[2,1-b]quinazoline], the IC50 in test [1] (setting [3]) was found to be 500 nM. In the case of `Clc1cccc2c1CN1CCCCCC1=N2` [1-Cl, H2, 1-chloro-6,7,8,9,10,12-hexahydroazepino[2,1-b]quinazoline], in test [1] (setting [3]), the IC50 worked out at 1700 nM. Take `Clc1cc(Cl)c2c(c1)N=C1CCCCN1C2`: in test [1] (setting [5]), the IC50 stood at 60 nM.

On to `Clc1cc(Cl)c2c(c1)N=C1CCCCCN1C2` [1,3-DiCl, H2, 1,3-dichloro-6,7,8,9,10,12-hexahydroazepino[2,1-b]quinazoline], for which the IC50 at Electric Eel AChE (setting [6]) was determined as 158 nM; in test [1] (setting [3]), 40 nM; in test [2], 172 nM. The corresponding values for `Clc1cc(Cl)c2c(c1)CN1CCCCCC1=N2` [2,4-DiCl, H2, 2,4-dichloro-6,7,8,9,10,12-hexahydroazepino[2,1-b]quinazoline] are 250 nM, 63 nM and 3810 nM. `Clc1cccc2c1N=C1CCCCCN1C2` [4-Cl, H2, 4-chloro-6,7,8,9,10,12-hexahydroazepino[2,1-b]quinazoline]: the IC50 came out at 631 nM at Electric Eel AChE (setting [6]) and 1500 nM in test [1] (setting [3]). In the case of `Clc1ccc2c(c1)N=C1CCCCCN1C2` [3-Cl, H2, 3-chloro-6,7,8,9,10,12-hexahydroazepino[2,1-b]quinazoline], the values for the IC50 (at Electric Eel AChE (setting [6]); in test [2]) were 200 nM and 1900 nM, respectively.

In the case of `Cc1cccc2c1N=C1CCCCCN1C2` [4-CH3, H2, 4-methyl-6,7,8,9,10,12-hexahydroazepino[2,1-b]quinazoline], the IC50 in test [1] (setting [3]) was found to be 6000 nM. For `Clc1cc(Cl)c2c(c1)N=C1C3CCCC(C3)N1C2` (stereo not drawn), the IC50 in test [1] (setting [5]) is 1000 nM.

Regarding `Clc1ccc2c(c1)N=C1CC3CCC(C3)N1C2` (racemic), the IC50 in test [1] (setting [5]) worked out at 920 nM.

Regarding `Clc1cc(Cl)c2c(c1)N=C1CCCN1C2`, the IC50 in test [1] (setting [5]) came out at 200 nM.

As to `Clc1cc2c(cc1Cl)N=C1CCCCCN1C2` [2,3-DiCl, H2, 2,3-dichloro-6,7,8,9,10,12-hexahydroazepino[2,1-b]quinazoline], the IC50 worked out at 398 nM at Electric Eel AChE (setting [6]), 2500 nM in test [1] (setting [3]) and 17900 nM in test [2]. As to `c1ccc2c(c1)CN1CCCCCCCC1=N2`, the IC50 at Electric Eel AChE (setting [4]) turned out to be 4000 nM. In the case of `COc1cc2c(cc1OC)N=C1CCCCCN1C2` [2,3-DiOCH3, H2, 2,3-dimethoxy-6,7,8,9,10,12-hexahydroazepino[2,1-b]quinazoline], the results for the IC50 (on Electric Eel AChE (setting [6]); in test [1] (setting [3])) were 398 nM and 9000 nM, respectively. `c1ccc(C2(c3ccccc3)CCC3=Nc4ccccc4CN3C2)cc1`: at Electric Eel AChE (setting [4]), the IC50 turned out to be 370 nM. For `N#Cc1ccc2c(c1)CN1CCCCCC1=N2` [2-CN, H2], the IC50 on Electric Eel AChE (setting [6]) was found to be 1500 nM; in test [1] (setting [3]) it was 6700 nM. `FC(F)(F)c1ccc2c(c1)N=C1CCCCCN1C2`: on Electric Eel AChE (setting [4]), the IC50 stood at 1000 nM. As for `CCc1ccc2c(c1)CN1CCCCCC1=N2` [2-C2 H5, H2, 2-ethyl-6,7,8,9,10,12-hexahydroazepino[2,1-b]quinazoline], the results for the IC50 (on Electric Eel AChE (setting [6]); in test [1] (setting [3])) were 1000 nM and 2500 nM, respectively. As for `Clc1cc(Cl)c2c(c1)N=C1C3CC4CC(C3)CC(C4)N1C2`, in test [1] (setting [5]), the IC50 turned out to be 60 nM.

For `Cc1ccc2c(c1)CN1CCCCCC1=N2` [2-CH3, H2, 2-methyl-6,7,8,9,10,12-hexahydroazepino[2,1-b]quinazoline], the IC50 in test [1] (setting [3]) is 1800 nM. The same measure, in the same setting: the same measure for `Cc1c(Cl)ccc2c1CN1CCCCCC1=N2` [1-CH3,2-Cl, H2, 2-chloro-1-methyl-6,7,8,9,10,12-hexahydroazepino[2,1-b]quinazoline]: 3980 nM; for `Clc1ccc2c(c1Cl)CN1CCCCCC1=N2` [1,2-DiCl, H2, 1,2-dichloro-6,7,8,9,10,12-hexahydroazepino[2,1-b]quinazoline]: 3160 nM. On to `O=c1c2c(Cl)cc(Cl)cc2nc2n1CCCCC2`, for which the IC50 in test [1] (setting [5]) was found to be 63000 nM.

With `N=c1c2ccc(Cl)cc2nc2n1CCCCC2` [3-Cl, NH, 3-chloro-7,8,9,10-tetrahydroazepino[2,1-b]quinazolin-12(6H)-imine], the IC50 at Electric Eel AChE (setting [6]) came out at 500 nM. On to `Clc1ccc(Cl)c2c1CN1CCCCCC1=N2` [1,4-DiCl, H2, 1,4-dichloro-6,7,8,9,10,12-hexahydroazepino[2,1-b]quinazoline], for which the IC50 at Electric Eel AChE (setting [6]) amounted to 100 nM; in test [1] (setting [3]), 631 nM; in test [2], 16400 nM. Turning to `Fc1cccc2c1CN1CCCCCC1=N2` [1-F, H2, 1-fluoro-6,7,8,9,10,12-hexahydroazepino[2,1-b]quinazoline], the IC50 in test [1] (setting [3]) is 1900 nM. As to `Fc1ccc2c(c1)N=C1CCCCCN1C2` [3-F, H2, 3-fluoro-6,7,8,9,10,12-hexahydroazepino[2,1-b]quinazoline], the IC50 came to 600 nM on Electric Eel AChE (setting [6]) and 2870 nM in test [1] (setting [3]). Regarding `Fc1ccc2c(c1)CN1CCCCCC1=N2` [2-F, H2, 2-fluoro-6,7,8,9,10,12-hexahydroazepino[2,1-b]quinazoline], the IC50 in test [1] (setting [3]) came out at 2000 nM. For the compound `Cc1c(Cl)cc2c(c1Cl)CN1CCCCCC1=N2` [1,3-DiCl, 2-Me, H2, 1,3-dichloro-2-methyl-6,7,8,9,10,12-hexahydroazepino[2,1-b]quinazoline], in test [1] (setting [3]), the IC50 is 1000 nM.

Turning to `N=c1c2ccccc2nc2n1CCCCC2`, at Electric Eel AChE (setting [4]), the IC50 was determined as 2000 nM. For the compound `CC1(C)CC2=Nc3cc(Cl)cc(Cl)c3CN2CC(C)(C)C1`, in test [1] (setting [5]), the IC50 was 2000 nM. As to `S=c1c2ccc(Cl)cc2nc2n1CCCCC2` [3-Cl, S, 3-Chloro-7,8,9,10-tetrahydroazepino[2,1-b]quinazolin-12(6H)-thione], the IC50 on Electric Eel AChE (setting [6]) was 15800 nM. Consider `c1ccc2c(c1)CN1CCCCCC1=N2` [H, H2], for which the IC50 worked out at 610 nM at Electric Eel AChE (setting [6]), 1900 nM in test [1] (setting [3]) and 16000 nM in test [2]. For the compound `Clc1ccc2c(c1Cl)N=C1CCCCCN1C2` [3,4-DiCl, H2, 3,4-dichloro-6,7,8,9,10,12-hexahydroazepino[2,1-b]quinazoline], the IC50 at Electric Eel AChE (setting [6]) was determined as 398 nM; in test [1] (setting [3]), 1500 nM; in test [2], 23800 nM. Take `Cc1cc(C)c2c(c1)CN1CCCCCC1=N2` [2,4-DiCH3, H2, 2,4-dimethyl-6,7,8,9,10,12-hexahydroazepino[2,1-b]quinazoline]: the IC50 in test [1] (setting [3]) came to 900 nM. `Fc1cccc2c1N=C1CCCCCN1C2` [4-F, H2, 4-fluoro-6,7,8,9,10,12-hexahydroazepino[2,1-b]quinazoline]: the IC50 at Electric Eel AChE (setting [6]) was 1500 nM; in test [1] (setting [3]), 1600 nM.
